What was measured:
Format in all cases: functional
LOX IMVI = experiment: Cytotoxicity against human LOXIMVI cells assessed as cell growth at 10^-6 M after 48 hrs by SRB assay relative to control; settings: read-out: Activity
[1] = Cytotoxicity against human HCT116 cells assessed as cell growth at 10^-4 M after 48 hrs by SRB assay relative to control; settings: HCT-116, 48 h, read-out: Activity
SNB-19 [2] = experiment: Cytotoxicity against human SNB19 cells assessed as cell growth at 10^-6 M after 48 hrs by SRB assay relative to control; settings: SNB-19, 48 h, read-out: Activity
SF-539 = experiment: Cytotoxicity against human SF539 cells after 48 hrs by SRB assay; settings: SF-539, 48 h; for CC50: read-out: LC50 (the source's name)
786-0 = experiment: Cytotoxicity against human 786-0 cells assessed as cell growth at 10^-6 M after 48 hrs by SRB assay relative to control; settings: 786-0, 48 h, read-out: Activity
COLO 205 [3] = experiment: Cytotoxicity against human COLO205 cells assessed as cell growth at 10^-6 M after 48 hrs by SRB assay relative to control; settings: COLO 205, 48 h, read-out: Activity
NCI-H322M = experiment: Cytotoxicity against human NCI-H322M cells assessed as cell growth at 10^-4 M after 48 hrs by SRB assay relative to control; settings: read-out: Activity
ACHN = experiment: Cytotoxicity against human ACHN cells assessed as cell growth at 10^-4 M after 48 hrs by SRB assay relative to control; settings: read-out: Activity
[4] = Cytotoxicity against human UO31 cells assessed as cell growth at 10^-6 M after 48 hrs by SRB assay relative to control; settings: UO-31, 48 h, read-out: Activity
COLO 205 [5] = experiment: Cytotoxicity against human COLO205 cells after 48 hrs by SRB assay; settings: COLO 205, 48 h; for CC50: read-out: LC50 (the source's name)
SN12C = experiment: Cytotoxicity against human SN12C cells assessed as cell growth at 10^-4 M after 48 hrs by SRB assay relative to control; settings: read-out: Activity
KM12 = experiment: Cytotoxicity against human KM12 cells assessed as cell growth at 10^-6 M after 48 hrs by SRB assay relative to control; settings: KM12, 48 h, read-out: Activity
HT-29 = experiment: Cytotoxicity against human HT-29 cells assessed as cell growth at 10^-7 M after 48 hrs by SRB assay relative to control; settings: HT-29, 48 h, read-out: Activity
SW-620 = experiment: Cytotoxicity against human SW620 cells assessed as cell growth at 10^-7 M after 48 hrs by SRB assay relative to control; settings: SW-620, 48 h, read-out: Activity
[6] = Cytotoxicity against human Hs 578T cells assessed as cell growth at 10^-8 M after 48 hrs by SRB assay relative to control; settings: read-out: Activity
CAKI-1 [7] = experiment: Cytotoxicity against human Caki1 cells after 48 hrs by SRB assay; settings: CAKI-1, 48 h; for CC50: read-out: LC50 (the source's name)
[8] = Cytotoxicity against human OVCAR4 cells assessed as cell growth at 10^-7 M after 48 hrs by SRB assay relative to control; settings: OVCAR-4, 48 h, read-out: Activity
[9] = Cytotoxicity against human HCT15 cells after 48 hrs by SRB assay; settings: HCT-15, 48 h; for CC50: read-out: LC50 (the source's name)
MDA-MB-468 = experiment: Cytotoxicity against human MDA-MB-468 cells assessed as cell growth at 10^-4 M after 48 hrs by SRB assay relative to control; settings: MDA-MB-468, 48 h, read-out: Activity
MDA-MB-435 [10] = experiment: Cytotoxicity against human MDA-MB-435 cells assessed as cell growth at 10^-6 M after 48 hrs by SRB assay relative to control; settings: MDA-MB-435, 48 h, read-out: Activity
[11] = Cytotoxicity against human UACC62 cells assessed as cell growth at 10^-6 M after 48 hrs by SRB assay relative to control; settings: UACC-62, 48 h, read-out: Activity
[12] = Cytotoxicity against human OVCAR3 cells assessed as cell growth at 10^-4 M after 48 hrs by SRB assay relative to control; settings: OVCAR-3, 48 h, read-out: Activity
MDA-MB-435 [13] = experiment: Cytotoxicity against human MDA-MB-435 cells assessed as cell growth at 10^-4 M after 48 hrs by SRB assay relative to control; settings: MDA-MB-435, 48 h, read-out: Activity
HOP-62 = experiment: Cytotoxicity against human HOP62 cells after 48 hrs by SRB assay; settings: HOP-62, 48 h
[14] = Cytotoxicity against human OVCAR8 cells assessed as cell growth at 10^-7 M after 48 hrs by SRB assay relative to control; settings: OVCAR-8, 48 h, read-out: Activity
[15] = Cytotoxicity against human UO31 cells assessed as cell growth at 10^-4 M after 48 hrs by SRB assay relative to control; settings: UO-31, 48 h, read-out: Activity
SNB-75 = experiment: Cytotoxicity against human SNB75 cells assessed as cell growth at 10^-7 M after 48 hrs by SRB assay relative to control; settings: SNB-75, 48 h, read-out: Activity
NCI-H460 = experiment: Cytotoxicity against human NCI-H460 cells after 48 hrs by SRB assay; settings: NCI-H460, 48 h; for CC50: read-out: LC50 (the source's name)
SNB-19 [16] = experiment: Cytotoxicity against human SNB19 cells assessed as cell growth at 10^-4 M after 48 hrs by SRB assay relative to control; settings: SNB-19, 48 h, read-out: Activity
SF-295 = experiment: Cytotoxicity against human SF295 cells assessed as cell growth at 10^-7 M after 48 hrs by SRB assay relative to control; settings: SF-295, 48 h, read-out: Activity
[17] = Cytotoxicity against human OVCAR5 cells assessed as cell growth at 10^-6 M after 48 hrs by SRB assay relative to control; settings: OVCAR-5, 48 h, read-out: Activity
CAKI-1 [18] = experiment: Cytotoxicity against human Caki1 cells assessed as cell growth at 10^-6 M after 48 hrs by SRB assay relative to control; settings: CAKI-1, 48 h, read-out: Activity
[19] = Cytotoxicity against human HCT15 cells assessed as cell growth at 10^-8 M after 48 hrs by SRB assay relative to control; settings: HCT-15, 48 h, read-out: Activity
[20] = Cytotoxicity against human OVCAR3 cells after 48 hrs by SRB assay; settings: OVCAR-3, 48 h
NCI-H23 = experiment: Cytotoxicity against human NCI-H23 cells assessed as cell growth at 10^-7 M after 48 hrs by SRB assay relative to control; settings: NCI-H23, 48 h, read-out: Activity
Malme-3M = experiment: Cytotoxicity against human MALME-3M cells assessed as cell growth at 10^-4 M after 48 hrs by SRB assay relative to control; settings: read-out: Activity

CC(C)=CCC[C@H](C)c1ccc(C)c2c1OCN(CC1CCNCC1)C2
growth at 1 µM (LOX IMVI): 99% | growth at 100 µM [1]: -80% | growth at 1 µM (SNB-19 [2]): 94% | GI50 (SF-539): 13.7 µM | TGI (SF-539): 27.5 µM | CC50 (SF-539): 55.3 µM | growth at 1 µM (786-0): 99% | growth at 1 µM (COLO 205 [3]): 101% | growth at 100 µM (NCI-H322M): -68% | growth at 100 µM (ACHN): -89% | growth at 1 µM [4]: 91% | GI50 (COLO 205 [5]): 1.86 µM | TGI (COLO 205 [5]): 3.41 µM | CC50 (COLO 205 [5]): 6.25 µM | growth at 100 µM (SN12C): -88% | growth at 1 µM (KM12): 103% | growth at 0.1 µM (HT-29): 112% | growth at 0.1 µM (SW-620): 100% | growth at 0.01 µM [6]: 98% | GI50 (CAKI-1 [7]): 17.7 µM | TGI (CAKI-1 [7]): 36.8 µM | CC50 (CAKI-1 [7]): 76.3 µM | growth at 0.1 µM [8]: 102% | GI50 [9]: 6.51 µM | TGI [9]: 21.1 µM | CC50 [9]: 54 µM | growth at 100 µM (MDA-MB-468): -80% | growth at 1 µM (MDA-MB-435 [10]): 96% | growth at 1 µM [11]: 101% | growth at 100 µM [12]: -84% | growth at 100 µM (MDA-MB-435 [13]): -83% | GI50 (HOP-62): 14.8 µM | LC50 (HOP-62): 55.6 µM | TGI (HOP-62): 28.7 µM | growth at 0.1 µM [14]: 101% | growth at 100 µM [15]: -86% | growth at 0.1 µM (SNB-75): 85% | GI50 (NCI-H460): 5.36 µM | TGI (NCI-H460): 16.6 µM | CC50 (NCI-H460): 43.1 µM | growth at 100 µM (SNB-19 [16]): -82% | growth at 0.1 µM (SF-295): 94% | growth at 1 µM [17]: 85% | growth at 1 µM (CAKI-1 [18]): 98% | growth at 0.01 µM [19]: 93% | GI50 [20]: 15.6 µM | LC50 [20]: 62.1 µM | TGI [20]: 31.1 µM | growth at 0.1 µM (NCI-H23): 94% | growth at 100 µM (Malme-3M): -76%

CC(C)=CCC[C@H](C)c1ccc(C)c(CNCC2CCNCC2)c1O
growth at 1 µM (LOX IMVI): 98% | growth at 100 µM [1]: -39% | growth at 1 µM (SNB-19 [2]): 93% | GI50 (SF-539): 4.07 µM | TGI (SF-539): 8.32 µM | CC50 (SF-539): 17 µM | growth at 1 µM (786-0): 85% | growth at 1 µM (COLO 205 [3]): 107% | growth at 100 µM (NCI-H322M): 13% | growth at 100 µM (ACHN): -34% | growth at 1 µM [4]: 84% | GI50 (COLO 205 [5]): 3.98 µM | TGI (COLO 205 [5]): 7.57 µM | CC50 (COLO 205 [5]): 14.4 µM | growth at 100 µM (SN12C): 39% | growth at 1 µM (KM12): 93% | growth at 0.1 µM (HT-29): 105% | growth at 0.1 µM (SW-620): 95% | growth at 0.01 µM [6]: 94% | GI50 (CAKI-1 [7]): 4.62 µM | TGI (CAKI-1 [7]): 13.4 µM | CC50 (CAKI-1 [7]): > 25 µM | growth at 0.1 µM [8]: 103% | GI50 [9]: 5.19 µM | TGI [9]: 18.6 µM | CC50 [9]: > 25 µM | growth at 100 µM (MDA-MB-468): -90% | growth at 1 µM (MDA-MB-435 [10]): 92% | growth at 1 µM [11]: 86% | growth at 100 µM [12]: 3% | growth at 100 µM (MDA-MB-435 [13]): -66% | GI50 (HOP-62): 4.12 µM | LC50 (HOP-62): 17.6 µM | TGI (HOP-62): 8.5 µM | growth at 0.1 µM [14]: 104% | growth at 100 µM [15]: -29% | growth at 0.1 µM (SNB-75): 90% | GI50 (NCI-H460): 4.45 µM | TGI (NCI-H460): 9.23 µM | CC50 (NCI-H460): 19.1 µM | growth at 100 µM (SNB-19 [16]): 21% | growth at 0.1 µM (SF-295): 91% | growth at 1 µM [17]: 90% | growth at 1 µM (CAKI-1 [18]): 89% | growth at 0.01 µM [19]: 102% | GI50 [20]: 8.44 µM | LC50 [20]: > 25 µM | TGI [20]: > 25 µM | growth at 0.1 µM (NCI-H23): 94% | growth at 100 µM (Malme-3M): -62%
